Data set [1] concerns rodent models of depression. To be noted: in vivo; cited from earlier work.
In data set [2] the test system is unilaterally 6-OHDA-lesioned rats. Briefly: L-DOPA-induced dyskinesia (AIM scores) in 6-OHDA-lesioned rat model of Parkinson's disease. It counts as in vivo. To be noted: eltoprazine hydrochloride 0.08, 0.3, 1.25 and 5 mg/kg s.c.; after 21 days of L-DOPA; FIG. 2. The procedure: (§1) Male Sprague Dawley rats (Elevage Janvier, Le Genest Saint Isle, France) weighing between 220 and 250 g at the beginning of the study are used in these experiments. They are housed under a 12-hr light/dark cycle with free access to standard pelleted food and tap water. Animal treatment and experimental procedures are approved by local ethical committees (Regierungspräsidium Darmstadt; Germany).
(§2) Dopamine-denervating lesions are performed on rats anaesthetized with a 5:1 mixture of ketamine and xylazine (1 ml/kg, i.p.). […] The animals' turning behaviour is recorded in an automated rotometer (TSE Rotameter System, TSE—Systems GmbH, Bad Homburg, Germany) over a 90-min period after the intraperitoneal (i.p.) injection of 2.5 mg/kg dexamphetamine sulphate dissolved in saline. […]
In order to evaluate a the severity of LID, AIMs are recorded every second day as described by Cenci et al. (1998). […]
Eur J Neurosci 1998 10:2694-2706. […] Each rat is scored on a severity scale from 0 to 4 based on its frequency and persistence (1=occasional; 2=frequent; 3=continuous but interrupted by sensory distraction; 4=continuous, severe and not interrupted by sensory distraction). […]

A further data set concerns the target dopamine D2 receptor (Homo sapiens, UniProt P14416). Briefly: Affinity for dopamine D2 receptor. The class given is binding.
Data set [3] addresses T1, human serotonin HT1a receptor (Homo sapiens, UniProt P08908).
T1 construct: expressed in transfected cells; host or cells: CHO-K1
T1 sequence (P08908 1-422): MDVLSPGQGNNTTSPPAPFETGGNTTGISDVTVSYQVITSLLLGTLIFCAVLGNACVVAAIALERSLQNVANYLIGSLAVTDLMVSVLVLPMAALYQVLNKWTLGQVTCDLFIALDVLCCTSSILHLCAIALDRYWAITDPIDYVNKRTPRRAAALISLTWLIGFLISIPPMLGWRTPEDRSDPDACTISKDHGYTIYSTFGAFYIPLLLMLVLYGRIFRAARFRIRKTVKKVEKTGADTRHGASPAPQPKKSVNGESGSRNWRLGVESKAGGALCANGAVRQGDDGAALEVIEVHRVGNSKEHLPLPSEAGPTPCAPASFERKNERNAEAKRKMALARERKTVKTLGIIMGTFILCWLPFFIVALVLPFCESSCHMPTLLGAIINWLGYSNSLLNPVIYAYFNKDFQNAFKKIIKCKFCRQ
Briefly: GTPγS assay, agonist testing, 5-HT1a. To be noted: human recombinant cell lines; FIG. 1; relevant plasma concentration (<0.5 μM). The class given is biochemical. The procedure: (§3) Eltoprazine was tested for activity on the human serotonin HT1a and 5-HT1b receptors using a GTPγS assay. Recombinant membranes obtained from CHO-K1 cells expressing either the 5-HT1a or 5-HT1b receptors were mixed with GDP (volume:volume) and incubated for at least 15 min on ice. In parallel, GTPγ[35S] was mixed with the beads (volume:volume) just before starting the reaction. The following reagents were successively added in the wells of an Optiplate (Perkin Elmer): 50 μl of test compound, 20 μl of the membranes:GDP mix, 10 μl of assay buffer (for agonist testing) and 20 μl of the GTPγ[35S]:beads mix. The plates were covered with a top seal, shaken on an orbital shaker for 2 min, and then incubated for 1 hour at room temperature. Then the plates were centrifuged for 10 min at 2000 rpm, incubated at room temperature 1 hour and counted for 1 min/well with a PerkinElmer TopCount reader.

The subject of data set [4] is unilaterally 6-OHDA-lesioned rats. Briefly: Turning behaviour induced by high dose of L-DOPA in 6-OHDA-lesioned rats. It counts as in vivo, rat. The following applies: 0.3, 1.25 and 5 mg/kg, 30 min before test, FIG. 3. The procedure:
as §1, §2
In order to evaluate the effect of eltoprazine on parkinsonian symptoms and its interaction with L-DOPA, rotational behaviour is evaluated. The numbers of ipsilateral and contralateral turns are recorded in an automated rotometer (TSE Rotameter System, TSE—Systems GmbH, Bad Homburg, Germany) over a period of 180 min. […]

The target in a further data set is T2, human 5-HT1b receptor (Homo sapiens, UniProt P28222).
T2 construct: expressed in transfected cells; host or cells: CHO-K1
Briefly: GTPγS assay, agonist testing, 5-HT1b. The class given is biochemical. To be noted: human recombinant cell lines; FIG. 1; relevant plasma concentration (<0.5 μM). The procedure: as §3

In data set [5] the target is T3, 5-HT2a recombinant receptor (Homo sapiens, UniProt P28223).
T3 construct: expressed in transfected cells
Briefly: Aequorin cell line functional assay, 5-HT2a. The following applies: human recombinant cell lines; FIG. 1; relevant plasma concentration (<0.5 μM). It counts as cell-based. The procedure: (§4) Aequorin cell lines expressing the 5-HT2a, 5-HT2b and 5-HT2c non-edited (ne) recombinant receptors were used to evaluate the functional activity of eltoprazine. Aequorin cells grown 18 hours prior to the test in media without antibiotics were detached by gentle flushing with PBS-EDTA (5 mM EDTA), recovered by centrifugation and resuspended in “assay buffer” (DMEM/HAM's F12 with HEPES+0.1% BSA protease free). Cells were incubated at room temperature for at least 4 h with Coelenterazine h (Molecular Probes). The reference agonist used were 5-HT and a-methyl-5-HT. For agonist testing, 50 μl of cell suspension were injected on 50 μl of test compound or reference agonist plated in a 96-well plate. The resulting emission of light was recorded using the Hamamatsu Functional Drug Screening System 6000 (FDSS 6000).

Data set [6] addresses T4, 5-HT2c non-edited (ne) recombinant receptor (Homo sapiens, UniProt P28335).
T4 construct: expressed in transfected cells
T4 sequence (P28335 33-458): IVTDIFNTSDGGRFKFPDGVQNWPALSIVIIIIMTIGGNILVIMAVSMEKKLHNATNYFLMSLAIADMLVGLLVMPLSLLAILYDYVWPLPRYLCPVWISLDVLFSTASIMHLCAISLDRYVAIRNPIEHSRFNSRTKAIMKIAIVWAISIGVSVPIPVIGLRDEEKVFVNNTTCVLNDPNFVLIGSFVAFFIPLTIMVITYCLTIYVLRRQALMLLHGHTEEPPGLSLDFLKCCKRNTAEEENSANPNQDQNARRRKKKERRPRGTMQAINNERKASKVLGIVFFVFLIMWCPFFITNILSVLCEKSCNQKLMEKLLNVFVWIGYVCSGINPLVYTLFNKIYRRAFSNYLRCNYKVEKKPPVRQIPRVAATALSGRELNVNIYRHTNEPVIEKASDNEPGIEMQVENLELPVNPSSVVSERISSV
Briefly: Aequorin cell line functional assay, 5-HT2c non-edited. The class given is cell-based. The following applies: human recombinant cell lines; FIG. 1; relevant plasma concentration (<0.5 μM). The procedure:
as §4

Data set [7] has as its system 1-methyl-4-phenyl-1,2,3,6-tetrahydropyridine-treated primates. To be noted: monkey studies; Iravani et al. 2003; cited from earlier work.

The structures appear in SMILES notation. Entries after “also recorded” stand apart in the source; their conditions may differ.

The values that follow come from patent US20110288105A1, “ELTOPRAZINE FOR THE TREATMENT OF L-DOPA-INDUCED DYSKINESIA” (Merz Pharma GmbH & Co. KGaA, priority 2008, published 2011).

dopamine D2 receptor, sequence (P14416 whole entry, species assumed): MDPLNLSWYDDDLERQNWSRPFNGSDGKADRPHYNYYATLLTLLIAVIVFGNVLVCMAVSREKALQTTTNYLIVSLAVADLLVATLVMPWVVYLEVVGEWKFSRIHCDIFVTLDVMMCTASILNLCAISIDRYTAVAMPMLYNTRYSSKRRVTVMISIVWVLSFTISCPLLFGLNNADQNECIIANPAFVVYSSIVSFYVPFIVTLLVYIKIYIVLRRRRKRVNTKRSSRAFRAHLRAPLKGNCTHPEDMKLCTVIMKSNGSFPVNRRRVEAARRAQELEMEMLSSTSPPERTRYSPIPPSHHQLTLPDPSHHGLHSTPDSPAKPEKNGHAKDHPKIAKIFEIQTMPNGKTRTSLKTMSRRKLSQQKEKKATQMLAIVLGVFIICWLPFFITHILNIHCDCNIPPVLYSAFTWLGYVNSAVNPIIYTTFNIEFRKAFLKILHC
T2 sequence (P28222 whole entry): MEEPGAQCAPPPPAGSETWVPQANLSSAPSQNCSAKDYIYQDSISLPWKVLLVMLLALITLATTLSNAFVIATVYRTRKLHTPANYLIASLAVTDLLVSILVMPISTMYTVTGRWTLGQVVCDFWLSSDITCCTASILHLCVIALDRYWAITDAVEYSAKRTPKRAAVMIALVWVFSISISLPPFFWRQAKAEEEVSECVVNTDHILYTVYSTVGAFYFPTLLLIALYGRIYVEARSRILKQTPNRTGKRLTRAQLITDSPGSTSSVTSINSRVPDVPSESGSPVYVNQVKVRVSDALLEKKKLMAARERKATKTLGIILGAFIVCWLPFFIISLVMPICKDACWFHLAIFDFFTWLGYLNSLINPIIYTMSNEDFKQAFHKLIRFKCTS
T3 sequence (P28223 whole entry): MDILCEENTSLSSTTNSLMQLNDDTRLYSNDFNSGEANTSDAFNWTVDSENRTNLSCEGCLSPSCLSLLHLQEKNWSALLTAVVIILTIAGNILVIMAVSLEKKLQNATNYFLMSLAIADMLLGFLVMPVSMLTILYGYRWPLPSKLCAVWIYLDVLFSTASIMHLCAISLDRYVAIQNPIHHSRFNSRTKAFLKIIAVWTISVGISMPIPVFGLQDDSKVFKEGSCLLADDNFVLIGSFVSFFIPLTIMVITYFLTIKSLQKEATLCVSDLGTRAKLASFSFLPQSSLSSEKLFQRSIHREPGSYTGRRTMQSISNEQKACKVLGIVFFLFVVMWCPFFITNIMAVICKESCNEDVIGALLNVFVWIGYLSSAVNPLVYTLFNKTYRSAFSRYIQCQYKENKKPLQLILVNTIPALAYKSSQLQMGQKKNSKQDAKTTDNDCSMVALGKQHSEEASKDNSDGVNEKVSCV

Consider `c1cc2c3c(c1)[C@H]1CCC[C@H]1N3CCNC2` [WAY-163909], for which the “effect in rodent models of depression” value in [1] was “positive effects”.
`COc1ccc2c(c1O[C@H]1CCNC1)CCC2` [Org 37684]: the “effect in rodent models of depression” value in [1] is given as “positive effects”.
With `Clc1cccc(N2CCNCC2)c1` [mCPP], in data set [1], the “effect in rodent models of depression” value was “positive effects”.
Consider `C[C@H](N)Cn1ccc2cc(F)c(Cl)cc21` [Ro 60-0175], for which the “effect in rodent models of depression” value in [1] was “positive effects”.
For the compound `c1cc2c(c(N3CCNCC3)c1)OCCO2` [eltoprazine, 1-(2,3-dihydro-1,4-benzodioxin-5-yl)piperazine], in data set [2], the “effect on AIM scores (L-DOPA-induced dyskinesia)” value is “significantly reverses, in a dose-dependent manner”. Besides, on dopamine D2 receptor, the “affinity for the dopamine D2 receptor” value is given as “devoid of significant affinity”. The “functional action on 5-HT1a receptor” value in data set [3] is listed as “weak agonistic action”. For the same compound, in data set [4], the “interference with the antiparkinsonian effect of L-DOPA (turning behaviour)” value is given as “does not interfere with the antiparkinsonian effect of L-DOPA; also recorded: does not interfere with the anti-parkinsonian effect of L-DOPA”. Further, the “functional action on 5-HT1b receptor” value on human 5-HT1b receptor is listed as “partial agonistic action”. In addition, the “functional action on 5-HT2a receptor” value in [5] is recorded as “partial agonistic action”. Besides, the “functional action on 5-HT2c receptor” value in [6] is given as “agonist”.
In the case of `CCc1cc2c(ccc3cnn(C[C@H](C)N)c32)o1` [YM348], in data set [1], the “effect in rodent models of depression” value is listed as “positive effects”.
For `COc1ccc2[nH]cc(C3=CCNCC3)c2c1` [Ru-24969], the “effect on motor symptoms / side effects” value in [7] is reported as “worsening of motor symptoms and/or development of side effects”.
